# Results taken from patent US12708630B2, “Combined therapy of 4′-thio-5-aza-2′-deoxycytidine and Venetoclax” (PINOTBIO, INC., priority 2021, dated 2026).
# Where two headings read alike, the source gives them in different places.
# Tests used:
# [1] = test system: systemic MV4-11 engraftment model
# Protocol: After establishing a systemic MV4-11 engraftment model that more accurately depicts the disease in humans, Aza-T-dCyd was administered orally at doses ranging from 0.4 to 1.5 mg/kg.
# After establishment of the systemic MV4-11 engraftment model, Aza-T-dCyd was administered orally at doses of 1.5, 2.0, and 2.5 mg/kg (using the standard dose/dosing schedule used in preclinical trials for decitabine/azacytidine).
# After establishing a systemic MV4-11 engraftment model, blood was collected at pre-treatment (Day 21) and mid-treatment (Day 36, 56, 77) in the Aza-T-dCyd and Decitabine/Azacytidine groups and analyzed for complete blood count (CBC) values.
# To determine whether the anti-cancer efficacy in the systemic MV4-11 engraftment model was directly related to the ability to suppress the number of cancer cells, we performed experiments to measure body luminescence after systemic engraftment using the luciferase-transfected Mv4-11 cell line.
# [2] = test system: p15 tumor suppressor gene; test: p15 tumor suppressor gene re-expression (RT-PCR) in MV4-11 cells; type: cell-based; settings: MV4-11 cell line
# Protocol: Therefore, to determine the re-expression of tumor suppressor genes through epigenetic regulation mechanisms induced by DNMT1 inhibition upon Aza-T-dCyd (NTX-301) treatment, MV4-11 cells, an AML cell line, were treated with Aza-T-dCyd at different concentrations. […] Table 1 below compares the degree of p15 mRNA re-expression after DNMT1 inhibitor (Aza-T-dCyd/Decitabine) treatment in the MV4-11 cell line, an AML cell (fold increase from 0 nM is shown).
# [3] = test system: DNA methylation; test: DNA demethylation; type: cell-based
# Text: Through DNA demethylation caused by Aza-T-dCyd treatment, various tumor suppressor genes and genes required for differentiation induction of AML cells were reactivated, and the reactivated expression patterns of these genes were confirmed by RNA-seq data analysis (FIG. 24).
# [4] = biological target: T1, DNMT1 (Homo sapiens, UniProt P26358); test: DNMT1 protein Western blotting in cancer cell lines; type: cell-based; design: endogenous in cells; host or cells: MV4-11, KG-1a, CCRF-CEM, NCI-H23, HCT-116, IGROV-1 (also HL-60, THP-1)
# [5] = test system: HCT-116 (colorectal); test: HCT-116 (colorectal) xenograft model; type: in vivo, Mouse; settings: colorectal (HCT-116) xenograft, Decitabine comparator, dose not given
# Protocol: The efficacy of Aza-T-dCyd was confirmed by tumor growth curves after administration of Aza-T-dCyd in various solid cancer xenograft models. Aza-T-dCyd at a dose of 1~2 mg/kg was administered repeatedly for 2~6 cycles in QD×5, showing excellent anti-cancer effects (evidenced by test/control (T/C) value≤40%).
# [6] = biological target: T1, DNMT1; test: DNMT1 expression in HL-60 xenograft tumor samples; type: in vivo, mice; design: tumor samples were collected on day 11 to determine the expression of DNMT1, DNMT3A, and DNMT3B; from tissue; host or cells: HL-60 xenograft tumour samples (mouse host); settings: 2 mg/kg NTX-301 or 0.75 mg/kg Decitabine intraperitoneally, day 11
# Protocol: (§1) As the efficacy of DNMT1 inhibitors correlates with their selective profile for targeting DNMT1 and the de novo methyltransferases DNMT3A and DNMT3B, we confirmed the expression of DNMT1, DNMT3A, and DNMT3B in the Aza-T-dCyd and Decitabine treated groups in this xenograft model (FIG. 27).
# (§2) In the HL-60 xenograft mice model, 2 mg/kg of NTX-301 (Aza-T-dCyd) or 0.75 mg/kg of Decitabine were administered intraperitoneally, and then tumor samples were collected on day 11 to determine the expression of DNMT1, DNMT3A, and DNMT3B. […] On the other hand, the expression levels of DNMT3A and DNMT3B were different in the Aza-T-dCyd and Decitabine treatment groups.
# [7] = test system: leukemia cell lines; test: Growth-inhibitory activity on leukemia cell lines (GI50); type: cell-based; settings: 72 h, read-out: GI50 values (half maximal growth inhibitory concentrations)
# Protocol: The growth-inhibitory activity of Aza-T-dCyd, a DNMT1 inhibitor, was measured in leukemia cell lines to determine its inhibitory effect on cell proliferation.
# The growth-inhibitory activity of DNMT1 inhibitors, Aza-T-dCyd and Decitabine, was measured on leukemia cell lines to determine their effect on cell proliferation.
# [8] = test system: BL0382PD PDX (bladder); type: in vivo, Mouse; settings: NSG, mouse, in vivo, 0.75 mg/kg, 2 cycles
# Text: The efficacy of Aza-T-dCyd was confirmed by tumor growth curves after administration of Aza-T-dCyd in various solid cancer xenograft models. […]
# [9] = test system: HL-60 AML xenograft; test: HL-60 AML xenograft model; type: in vivo
# [10] = biological target: DNMT3B (Homo sapiens, UniProt Q9UBC3); test: DNMT3B expression in HL-60 xenograft tumor samples; type: in vivo, mice; design: tumor samples were collected on day 11 to determine the expression of DNMT1, DNMT3A, and DNMT3B; from tissue; host or cells: HL-60 xenograft tumour samples (mouse host); settings: 2 mg/kg NTX-301 or 0.75 mg/kg Decitabine intraperitoneally, day 11
# Protocol: as §1, §2
# [11] = test system: MV4-11 AML cells; test: MV4-11 AML xenograft implanted subcutaneously, combination with venetoclax; type: in vivo, mice; settings: administered alone (Aza-T-dCyd 2 mpk), FIGS. 30 and 31
# Protocol: After establishing a xenograft systemic AML model in which MV4-11 AML cells were implanted subcutaneously in mice, Aza-T-dCyd alone at 2.0 mpk for 1 cycle (5 days on, 2 days off, 5 days on, 9 days off) was administered (PO) or Aza-T-dCyd 0.5, 1.0 or 2.0 mpk plus venetoclax 50 mpk or 100 mpk administered orally (PO) for 1 cycle (venetoclax on for 5 days, off for 2 days, repeated for 3 weeks). Anti-cancer efficacy was determined in disease models in which azacitidine 5.0 mpk was administered intraperitoneally (IP) alone or in combination with optimal dose of azacitidine (2.5 mpk) and venetoclax 50 mpk or 100 mpk as a control.
# [12] = test system: cytidine deaminase; test: Degradation by cytidine deaminase; settings: compared to Decitabine/Azacytidine, oral administration
# Text: Decitabine/Azacytidine is susceptible to metabolism by cytidine deaminases in the body, resulting in an unstable PK profile that limits its efficacy.
# T1 sequence (P26358 whole entry): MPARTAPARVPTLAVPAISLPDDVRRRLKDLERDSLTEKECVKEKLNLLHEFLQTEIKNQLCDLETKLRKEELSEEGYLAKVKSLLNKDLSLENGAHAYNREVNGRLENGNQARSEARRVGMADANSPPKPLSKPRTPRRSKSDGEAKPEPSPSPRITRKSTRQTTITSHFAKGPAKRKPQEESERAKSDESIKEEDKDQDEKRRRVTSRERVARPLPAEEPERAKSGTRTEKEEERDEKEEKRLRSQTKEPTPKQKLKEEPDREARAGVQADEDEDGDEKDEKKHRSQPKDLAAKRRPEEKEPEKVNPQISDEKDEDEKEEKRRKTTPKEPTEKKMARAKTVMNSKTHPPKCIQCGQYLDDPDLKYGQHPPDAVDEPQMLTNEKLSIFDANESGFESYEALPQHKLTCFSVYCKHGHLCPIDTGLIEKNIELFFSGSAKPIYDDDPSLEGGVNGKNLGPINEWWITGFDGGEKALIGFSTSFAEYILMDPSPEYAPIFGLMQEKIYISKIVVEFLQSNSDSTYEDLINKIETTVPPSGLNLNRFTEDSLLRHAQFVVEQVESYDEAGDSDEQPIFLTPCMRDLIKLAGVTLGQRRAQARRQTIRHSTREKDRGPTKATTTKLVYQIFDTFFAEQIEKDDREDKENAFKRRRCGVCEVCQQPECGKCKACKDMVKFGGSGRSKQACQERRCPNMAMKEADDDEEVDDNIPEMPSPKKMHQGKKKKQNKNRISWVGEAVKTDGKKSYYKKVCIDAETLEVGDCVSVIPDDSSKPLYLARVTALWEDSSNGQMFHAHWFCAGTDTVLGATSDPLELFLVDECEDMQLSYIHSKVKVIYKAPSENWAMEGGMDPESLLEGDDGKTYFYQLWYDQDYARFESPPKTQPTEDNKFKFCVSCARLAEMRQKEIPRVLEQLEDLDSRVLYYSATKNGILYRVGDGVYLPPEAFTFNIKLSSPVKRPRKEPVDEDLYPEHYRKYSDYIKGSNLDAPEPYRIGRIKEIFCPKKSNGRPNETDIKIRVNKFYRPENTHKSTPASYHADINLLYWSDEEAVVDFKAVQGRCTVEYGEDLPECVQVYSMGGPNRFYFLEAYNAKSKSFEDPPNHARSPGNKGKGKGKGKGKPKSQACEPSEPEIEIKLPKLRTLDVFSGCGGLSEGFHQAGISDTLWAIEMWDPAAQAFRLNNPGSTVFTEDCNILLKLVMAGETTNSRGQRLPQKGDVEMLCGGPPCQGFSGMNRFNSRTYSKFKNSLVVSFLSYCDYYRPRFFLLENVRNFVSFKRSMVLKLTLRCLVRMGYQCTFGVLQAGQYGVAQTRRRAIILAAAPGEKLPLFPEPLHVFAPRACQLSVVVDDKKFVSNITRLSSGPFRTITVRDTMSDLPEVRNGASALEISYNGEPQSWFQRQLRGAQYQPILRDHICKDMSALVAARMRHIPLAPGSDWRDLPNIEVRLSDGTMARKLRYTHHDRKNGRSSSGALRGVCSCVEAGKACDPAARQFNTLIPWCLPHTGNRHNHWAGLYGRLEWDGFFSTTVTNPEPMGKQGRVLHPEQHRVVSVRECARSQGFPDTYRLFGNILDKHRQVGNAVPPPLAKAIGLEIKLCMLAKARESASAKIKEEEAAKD
smiles,measurement,setting,value
"Nc1ncn([C@@H]2O[C@H](CO)[C@@H](O)[C@H]2O)c(=O)n1 [Azacytidine, reference compound]","complete blood count (WBC, RBC, Neutrophil, Platelet)","[1]; mouse, in vivo",severe neutropenia
"Nc1ncn([C@H]2C[C@H](O)[C@@H](CO)O2)c(=O)n1 [Decitabine, 5-aza-2′-deoxycytidine]",p15 mRNA re-expression,[2]; 6 nM,1.3 ± 0.27 fold increase from 0 nM
same,p15 mRNA re-expression,[2]; 20 nM,1.7 ± 0.85 fold increase from 0 nM
same,p15 mRNA re-expression,[2]; 60 nM,2.2 ± 0.52 fold increase from 0 nM
same,p15 mRNA re-expression,[2]; 200 nM,4.3 ± 0.83 fold increase from 0 nM
same,pattern of DNA demethylation,[3],genome-wide demethylation
same,DNMT1 inhibition,"[4]; MV4-11 (AML cell line) cells, different concentrations, FIG. 10",inhibits DNMT1
same,T/C,[5],45%
same,DNMT1 expression in tumor samples,[6],significantly reduced
same,GI50,[7],24 to 4300 nM
same,toxicity,[8],showed toxicity after 2 cycles
same,anti-AML activity and survival,"[1]; Aza-T-dCyd oral 1.5, 2.0 and 2.5 mg/kg, decitabine/azacytidine at standard preclinical dose/schedule",no therapeutic effect
same,"complete blood count (WBC, RBC, Neutrophil, Platelet)","[1]; blood at Day 21, 36, 56, 77",all individuals died before blood samples were collected
same,tolerability above the maximum dose,[9]; above 0.75 mg/kg,animals died above this dose
same,tumor suppression,[9]; maximum dose 0.75 mg/kg,no tumor suppression
same,DNMT3B expression level in tumor samples,[10],no effect was observed
"Nc1ccn([C@H]2C[C@H](O)[C@@H](CO)S2)c(=O)n1 [T-dCyd, reference compound]",DNMT1 inhibition,"[4]; CCRF-CEM (ALL cell line) cells, FIG. 12",inhibits DNMT1
same,DNMT1 inhibition,"[4]; KG-1a (AML cell line) cells, FIG. 11",inhibits DNMT1
same,DNMT1 inhibition,"[4]; NCI-H23, HCT-116 and IGROV-1 cell lines, FIG. 13",inhibits DNMT1
CC1(C)CCC(CN2CCN(c3ccc(C(=O)NS(=O)(=O)c4ccc(NCC5CCOCC5)c([N+](=O)[O-])c4)c(Oc4cnc5[nH]ccc5c4)c3)CC2)=C(c2ccc(Cl)cc2)C1 [Venetoclax],"anti-cancer effect (tumor volume), single agent",[11],limited tumor regression
Nc1ncn(C2CC(O)C(COP(=O)(O)OP(=O)(O)OP(=O)(O)O)S2)c(=O)n1 (stereo not drawn) [aza-T-dCTP],rate of degradation by cytidine deaminase,[12],slower rate of degradation by cytidine deaminase
